In patent EP0479834B1, “COMPETITIVE ENZYME ASSAY FOR DETERMINATION OF PHOSPHOTHIOATE INSECTICIDES” (COMMONWEALTH SCIENTIFIC AND INDUSTRIAL RESEARCH ORGANISATION, priority 1989, dated 1991):

Experiments:
Type in all cases: binding
[1] = test system: Antibody F7 (phosphorothioate-specific antibody; control pesticide chlorpyrifos-methyl); test: competition ELISA, assay format 2 (pesticide-macromolecule conjugate on the solid phase, antibody in solution); conditions: Antibody F7, assay format 2, control pesticide CP; 30 min antibody incubation
Method: The solid phase is coated with a pesticide-macromolecule conjugate. For the results listed in Table 1, the immunogen conjugate of chlorpyrifos-methyl (F7) was used. Following pretreatment to minimize non-specific binding of conjugate by treatment with a suitable protein or detergent, the sample to be analyzed is added. The grain, food or other sample may either be extracted in methanol, ethanol or other polar water-miscible solvent, or otherwise be extracted with a volatile organic solvent such as dichloromethane or acetone. The solvent may be removed by evaporation and the residue redissolved in a smaller volume of methanol. The extract or reconstituted residue is diluted in a protein and detergent - containing buffer and applied to the solid phase and antibody is added immediately. A standard is prepared in methanol and dilutions of this standard assayed simultaneously. Such antibody may either be enzyme-labelled by direct covalent association or a suitable amplification step used to detect binding of the antibody. Analysis by this technique is based on the competition between phosphorothioate in the test sample and solid phase- bound phosphorothioate, for binding to antibody in solution. There is a decrease in the binding of antibody as the concentration of organophosphate increases in the test sample; this is manifest in decreasing absorbance of the coloured enzyme product, in this example. The concentration of organophosphate may be assessed as described in assay format 1. Clean-up of the extracts was not necessary.
An antibody incubation time of 30 minutes was used, together with 20 min (2,2'-azino bis (3-ethylbenzthiazoline-6-sulfonic acid)) substrate incubation time. The overall assay time can be reduced to 5-10 minutes or increased to 18 hours for batchwise analysis of large numbers of (several hundred) samples.
The data shown in Table 1 are potencies relative to the control pesticide (determined as relative concentration yielding 50% inhibition of antibody binding). Absolute amounts of control pesticide yielding 50% inhibition of antibody binding in competition ELISA are: P9 (0.001 ng), F7 (50 ng), Pll (2 ng).

[2] = test system: Antibody F9 (phosphorothioate-specific antibody; control pesticide chlorpyrifos-methyl); test: competition ELISA, assay format 1 (antibody on the solid phase, horseradish peroxidase-labelled phosphorothioate); conditions: Antibody F9, assay format 1, control pesticide CP; 30 min incubation with enzyme conjugate
Method: (§1) The solid phase is coated with phosphorothioate-specific antibody. Preferentially the antibody is coated at 10µg/mL in 50mM sodium carbonate buffer, pH 9.6. Non-specific binding of immunoreactants is then minimized by treatment with a suitable protein or detergent, for example, 10mg/mL bovine serum albumin in 50mM sodium phosphate, pH 7.2 - 0.9% sodium chloride. The grain or food or other sample to be analyzed is extracted in neat methanol or ethanol, although other polar water-miscible solvents may be used; such as isopropanol, acetonitrile and acetone. Mixtures of water and these solvents may also be used. The grain, food or other extract is diluted five-fold in a protein and detergent-containing buffer (for example 10mg/mL bovine serum albumin or lmg/mL Teleostean fish skin gelatin in 0.05% (v/v) Tween in phosphate-buffered saline) applied to the solid phase and enzyme-labelled phosphorothioate (diluted similarly) is added immediately. A standard is prepared in methanol or ethanol and dilutions of this standard assayed simultaneously.
(§2) An incubation time of 30 min with chlorpyrifos-methyl (P9) or pirimiphos-methyl (P11) conjugated to horseradish peroxidase was used for the results shown in Table 1, together with 10 min chromogenic substrate (2,2'-azino-bis (3-ethyl benzthiazoline -6- sulfonic acid)) incubation time. The chromogen 3,3',5,5'-tetramethylbenzidine may also be used.
(§3) Analysis by this technique is based on the competition between phosphorothioate in the test sample and enzyme-labelled phosphorothioate for binding to phosphorothioate-specific antibody on the solid phase. There is a decrease in the binding of the enzyme-labelled phosphorothioate as the concentration of phosphorothioate increases in the test sample; this is manifest in decreasing absorbance of the coloured enzyme product. The concentration of phosphorothioate in an unknown sample may be determined by comparing the degree of inhibition of antibody binding caused by the addition of the sample extract with that resulting from the addition of known amounts of phosphorothioate. […]

[3] = test system: Antibody P11 (phosphorothioate-specific antibody; control pesticide pirimiphos-methyl); test: as above; conditions: Antibody P11, assay format 1, control pesticide PY; 30 min incubation with enzyme conjugate
Method: as §1, §2, §3

| SMILES | potencies relative to the control pesticide (relative concentration yielding 50% inhibition of antibody binding) [1] | potencies relative to the control pesticide (relative concentration yielding 50% inhibition of antibody binding) [2] | potencies relative to the control pesticide (relative concentration yielding 50% inhibition of antibody binding) [3] |
| --- | --- | --- | --- |
| CCOP(=S)(OCC)Oc1nc(Cl)c(Cl)cc1Cl [chlorpyrifos-ethyl] | 0.07 | – | – |
| COP(=S)(OC)Oc1nc(Cl)c(Cl)cc1Cl [chlorpyrifos-methyl (CP), chlorpyrifos-methyl] | 1.0 | 1.0 | – |
| COP(=S)(OC)Oc1ccc([N+](=O)[O-])cc1Cl [dicapthon] | 0.01 | – | – |
| COP(=S)(OC)Oc1ccc([N+](=O)[O-])c(C)c1 [fenitrothion (FN), fenitrothion] | 0.01 | – | – |
| COP(=S)(OC)Oc1ccc([N+](=O)[O-])cc1 [methylparathion] | 0.003 | – | – |
| CCOP(=S)(OCC)Oc1cc(C)nc(N(CC)CC)n1 [pirimiphos-ethyl] | – | – | 2.9 |
| CCN(CC)c1nc(C)cc(OP(=S)(OC)OC)n1 [pirimiphos-methyl (PY), pirimiphos-methyl] | – | – | 1.0 |
